Reference: patent US8614203B2, “Methods for the treatment of a central nervous system injury via a tapered administration protocol” (Emory University, priority 2005, dated 2013)

How the values were obtained:
BDNF = assay: Example 3: Western blot of brain tissue, BDNF; type: in vivo, Sprague-Dawley rats; details: TWI vs AWI vs VI, 3 weeks post-injury
Procedure: (§1) Male Sprague-Dawley rats received either medial frontal cortex injury or sham surgery. Injections were given 1 and 6 hours post-injury, and every 24 hours for 7 days. Treatment groups (n=8) encompassed injured (I) and sham (S) acute withdrawal (AW), tapered withdrawal (TW) and vehicle (V) treatments. TW injections were progressively halved over the final two treatments. Behavioral testing was conducted post-surgery, mid- and post-withdrawal. Activity boxes were used to investigate vertical movements and exploration: Sensory neglect and anxiety behaviors were also analyzed. Brain harvesting was performed at 8 days or 3 weeks post-injury. Perfused tissue sections were analyzed for lesion volume and immunohistochemical response. Fresh brain tissue was flash frozen in chilled 2-methyl butane, and then homogenized for Western blot analysis.

[1] = system: p53, active Caspase 3, TNFα and NFκB; assay: Example 3: Western blot of apoptotic and inflammatory proteins; type: in vivo, Sprague-Dawley rats
Procedure: as §1

p53 = assay: Example 4: Western blotting densitometry, p53; type: in vivo, Sprague-Dawley rats; details: all progesterone-treated animals (AW and TW); two weeks post-withdrawal
Source text: (§2) 60 male Sprague-Dawley rats weighing 290-310 g at the time of injury were used in this experiment. Food and water were provided ad libidum before and after surgery. Animals were handled and weighed daily from their arrival, seven days pre-surgery, to brain extraction three weeks post-surgery. Animals were handled in squads of 12, with n=10 per experimental condition. All animal procedures were approved by the Emory University Animal Care and Use Committee, Protocol #131-2002.
Isofluorane anesthesia was induced for four minutes and 45 seconds at 5% and maintained at 2.5%. Normal body temperature was maintained with a surgical heating pad placed beneath the sterile dressings. The scalp incision area was shaved and sterilized with iodine and isopropanol. A midline incision was made along the scalp and the fascia cleared to expose the surface of the skull. Medial, lateral, and dorsal stereotaxic coordinates were determined at bregma, and a 5-7 mm diameter bilateral craniotomy was performed mid-sagitally, 3 mm anterior to bregma. […] Sutures were used to close the incision after bleeding ceased. […]
Brains for protein analysis were sectioned into the immediate area of the lesion and snap frozen in 2-methyl-butane chilled on dry ice. […] The amount of brain homogenate needed to standardize samples to 2 μg/μL for Western blotting was calculated from the results of these assays. […]

GFAP = type: in vivo; details: acute withdrawal, lesion (AWL) vs VL; three weeks post-injury
Source text: as §2
Isofluorane anesthesia was induced for four minutes and 45 seconds at 5% and maintained at 2.5%. Normal body temperature was maintained with a surgical heating pad placed beneath the sterile dressings. The scalp incision area was shaved and sterilized with iodine and isopropanol. A midline incision was made along the scalp and the fascia cleared to expose the surface of the skull. Medial, lateral, and dorsal stereotaxic coordinates were determined at bregma, and a 5-7 mm diameter bilateral craniotomy was performed mid-sagitally, 3 mm anterior to bregma. […]
All animals were decapitated following a lethal 1 mL injection of Nembutal at three weeks post-injury. […] Thionin-stained sections from 4.2-2.2 mm anterior to bregma were identified and analyzed for lesion area using Kodak ID software. Total brain area was determined by determined by normalizing to the volume of sham brain sections. […]

contusion injury = details: following a contusion injury (Roof et al. 1994); cited from earlier work

## CC(=O)[C@H]1CC[C@H]2[C@@H]3CCC4=CC(=O)CC[C@]4(C)[C@H]3CC[C@]12C [progesterone, pregn-4-ene-3,20-dione]
BDNF
  BDNF expression: increased for TWI over AWI over VI at 3 weeks post-injury
[1]; all progesterone treatments (acute and tapered) vs vehicle-only controls
  expression of apoptotic and inflammatory proteins, outcome vs vehicle: all progesterone treatments led to better outcomes compared to vehicle-only controls
[1]; tapered withdrawal (TW)
  apoptosis and inflammation (p53, active Caspase 3, TNFα, NFκB): decreased with TW
p53
  p53 levels (long-term marker of apoptosis): p53 levels indistinguishable from vehicle shams
GFAP
  GFAP immunofluorescence luminosity (reactive astrocytes): upregulated in VL (A) animals over AWL (B) animals
Contusion injury
  post injury cerebral edema: reduces the severity of post injury cerebral edema
